Data on three compounds can be found in patent US20060041144A1 (priority 2002, published 2006).

Series [1] concerns Plasmopara viticola. Description: Preventive foliar spray test on grape inoculated with Plasmopara viticola zoosporangia (Test Examples 3 and 4). It is filed as in vivo. The settings on record: grape (variety: Berry A), flowable diluted to 200 ppm, foliar spray before inoculation, observed after 1 day at 23° C. plus 6 days in green house; Test Example 4. As to the method:
Additionally, the control effect was evaluated by visually observing the area of a lesion on a sample plant in investigation and comparing the area of a lesion on a non-treatment plant and the area of a lesion on a treated plant with the compound of the present invention.
Sand loam was compacted in a plastic pot, and a grape (variety: Berry A) was seeded and grown in a green house for 40 days. The compounds of the present invention (I-1), (I-2), (I-6) to (I-12), (II-1), (III-1) and (IV-1) were formulated to flowable according to Formulation Example 6, then, diluted with water to provide given concentration of 200 ppm, and these diluted solutions were sprayed onto stems and leaves so as to give sufficient adhesion on the surface of grape leaves. After spraying, the liquid on the stem was air-dried, and a suspension of zoosporangiua of Plasmopara viticola (about 10,000 zoosporangiua were contained in 1 ml of the suspension) was inoculated by spraying. The amount of the sprayed suspension was about 2 ml for one plant. After inoculation, the plant was first grown for one day at 23° C. under 90% or more humidity, then further grown for 6 days in the green house, which was 24° C. in daytime and 20° C. in night-time.
Then, the areas of a lesion of the plants were obserbed. […]

Series [2] relates to Phytophthora infestans. It is filed as in vivo. The settings on record: tomato (variety: Ponterosa), flowable diluted to 200 ppm, foliar spray before inoculation, observed after 1 day at 23° C. plus 4 days in green house; Test Example 2.

Each structure is given as a SMILES string.

What is called melting point is the temperature of the solid-liquid transition. For `C#CCOC(C(=O)Nc1cccnc1-c1ccc(OC)c(OC)c1)c1ccc(Cl)cc1` (stereo not drawn) [I-1, N-(2-(3,4-dimethoxyphenyl)pyridine-3-yl)-2-(2-propynyloxy)-2-(4-chlorophenyl)acetamide], the melting point turned out to be 125.2 °C.

As to `COc1ccc(-c2ncccc2NC(=O)C(O)c2ccc(C)cc2)cc1OC` (stereo not drawn) [I-4, N-{2-(3,4-dimethoxyphenyl)pyridine-3-yl}-2-hydroxy-2-(4-methylphenyl)acetamide], the “lesion area on treated plants relative to the lesion area on a non-treatment plant” value in series [1] is “not more than 10%”.

`COc1ccc(-c2ncccc2NC(=O)C(=C(Cl)Cl)c2ccc(Cl)cc2)cc1OC` [I-11, N-(2-(3,4-dimethoxyphenyl)-pyridine-3-yl)-2-(chlorophenyl)-3,3-dichloroacrylamide]: the “lesion area on treated plants relative to the lesion area on a non-treatment plant” value in series [2] is given as “not more than 10%”.
